Publication PMC3214078 (PLoS ONE, 2011)
Numbering of substitutions follows the chain as printed. Where no end group is shown, it is not given here.

Experiments:
Assay type in all cases: binding
huUHRF1-PHD296–367 D334A = biological target: T1, huUHRF1-PHD296–367 D334A (Homo sapiens, UniProt Q96T88, D334A); assay: ITC, D334A mutant; details: 20°C, 20 mM Tris pH 7, 150 mM NaCl, 0.5 mM TCEP, 25 µM ZnCl2, at least in duplicates
T1 construct: Characterization of key residues for the recognition of the histone H3 tail by huUHRF1-PHD296–367; (His)6-GST (N, cleaved yes); made in house; host or cells: Escherichia coli Rosetta 2
T1 sequence (Q96T88 296-367 D334A): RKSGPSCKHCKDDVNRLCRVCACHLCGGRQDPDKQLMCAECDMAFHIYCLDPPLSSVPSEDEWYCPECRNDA
Description: (§1) Measurements were carried out at 20°C on an ITC200 Microcal calorimeter (MicroCal). Histone peptides (1–12Y, 1.5–2 mM) were injected to a sample of either wild-type or mutant huUHRF1-PHD (0.12–0.18 mM) in a reaction buffer containing 20 mM Tris pH 7, 150 mM NaCl, 0.5 mM TCEP, 25 µM ZnCl2 and 0.1 mM PMSF. A typical titration consisted of 19 injections of 2 µl of peptide into 203 µl of the protein solution at time intervals of 150–300 s. Control experiments were performed under identical conditions to determine the dilution heat of the titrant peptide into buffer. Data were analyzed using the software ORIGIN 5.0 (OriginLab Corporation) and all the measurements were performed, at least, in duplicates.

huUHRF1-PHD296–367 D337A = biological target: T2, huUHRF1-PHD296–367 D337A (Homo sapiens, UniProt Q96T88, D337A); assay: ITC, D337A mutant; details: 20°C, 20 mM Tris pH 7, 150 mM NaCl, 0.5 mM TCEP, 25 µM ZnCl2, at least in duplicates
T2 construct: Characterization of key residues for the recognition of the histone H3 tail by huUHRF1-PHD296–367; (His)6-GST (N, cleaved yes); made in house; host or cells: Escherichia coli Rosetta 2
T2 sequence (Q96T88 296-367 D337A): T1 sequence (Q96T88 296-367 D334A) with A39D, D42A
Description: as §1

huUHRF1-PHD296–367 = biological target: T3, huUHRF1-PHD296–367 (Homo sapiens, UniProt Q96T88); assay: ITC, wild-type huUHRF1-PHD296–367 with histone H3 peptides; details: 20°C, 20 mM Tris pH 7, 150 mM NaCl, 0.5 mM TCEP, 25 µM ZnCl2, 0.1 mM PMSF, peptide 1.5–2 mM into protein 0.12–0.18 mM, at least in duplicates
T3 construct: (His)6-GST (N, cleaved yes); made in house; host or cells: Escherichia coli Rosetta 2
T3 sequence (Q96T88 296-367): T1 sequence (Q96T88 296-367 D334A) with A39D
Description: as §1, with “Histone peptides (1–12Y, 1.5–2 mM) were injected to a sample of either wild-type or mutant huUHRF1-PHD (0.12–0.18 mM) in a reaction buffer containing 20 mM Tris pH 7, 150 mM NaCl, 0.5 mM TCEP, 25 µM ZnCl2 and 0.1 mM PMSF.” left out

Compound | Kd (huUHRF1-PHD296–367 D334A) [µM] | Kd (huUHRF1-PHD296–367 D337A) [µM] | Kd (huUHRF1-PHD296–367) [µM]
C[C@H](N)C(=O)N[C@@H](CCCNC(=N)N)C(=O)N[C@H](C(=O)N[C@@H](CCCCN)C(=O)N[C@@H](CCC(N)=O)C(=O)N[C@H](C(=O)N[C@@H](C)C(=O)N[C@@H](CCCNC(=N)N)C(=O)N[C@@H](CCCCN)C(=O)N[C@@H](CO)C(=O)N[C@H](C(=O)NCC(=O)N[C@@H](Cc1ccc(O)cc1)C(=O)O)[C@@H](C)O)[C@@H](C)O)[C@@H](C)O [H3 (1-12Y)] | > 500 | 68 ± 8 | –
C[C@H](N)C(=O)N[C@@H](CCCNC(=N)N)C(=O)N[C@H](C(=O)N[C@@H](CCCCN)C(=O)N[C@@H](CCC(N)=O)C(=O)N[C@H](C(=O)N[C@@H](C)C(=O)N[C@@H](CCCNC(=N)N)C(=O)N[C@@H](CCCCN)C(=O)N[C@@H](CO)C(=O)N[C@H](C(=O)NCC(=O)N[C@@H](Cc1ccc(O)cc1)C(=O)O)[C@@H](C)O)[C@@H](C)O)[C@@H](C)O [unmodified H3] | – | – | 7.9
ARTAQTARKSTGY [H3K4A (1-12Y)] | – | – | 16.6 ± 0.9
